# In PubChem BioAssay (NCI):
#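 Five concentrations, 48 hours, 96-well plates. TGI is the concentration that stops growth completely.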 Where a SMILES comes first, the peptide text is derived from it. The star is where a group is joined. Fmoc = O=C(OCC1c2ccccc2-c2ccccc21)*; Boc = CC(C)(C)OC(=O)*
# Assays:
# Assay in all cases: NCI anticancer screen, dose series, 48 h
# OVCAR-8 ovarian = system: OVCAR-8 ovarian
# MALME-3M melanoma = system: MALME-3M melanoma
# TK-10 renal = system: TK-10 renal
# EKVX NSCLC = system: EKVX NSCLC
# MDA-N = system: MDA-N
# CCRF-CEM leukemia = system: CCRF-CEM leukemia
# HS 578T breast = system: HS 578T breast
# OVCAR-4 ovarian = system: OVCAR-4 ovarian
# SN12C renal = system: SN12C renal
# NCI-H460 lung = system: NCI-H460 lung
# SNB-75 CNS = system: SNB-75 CNS
# SF-268 CNS = system: SF-268 CNS
# UACC-257 melanoma = system: UACC-257 melanoma
# SK-MEL-2 melanoma = system: SK-MEL-2 melanoma
# PC-3 prostate = system: PC-3 prostate
# BT-549 breast = system: BT-549 breast
# CAKI-1 renal = system: CAKI-1 renal
# RXF 393 renal = system: RXF 393 renal
# OVCAR-3 ovarian = system: OVCAR-3 ovarian
# HOP-62 NSCLC = system: HOP-62 NSCLC
# UACC-62 melanoma = system: UACC-62 melanoma
# HCC-2998 colon = system: HCC-2998 colon
# IGROV1 ovarian = system: IGROV1 ovarian
# SK-MEL-5 melanoma = system: SK-MEL-5 melanoma
# HT29 colon = system: HT29 colon
# HL-60(TB) leukemia = system: HL-60(TB) leukemia
# 786-0 renal = system: 786-0 renal
# SK-MEL-28 melanoma = system: SK-MEL-28 melanoma
# SNB-19 CNS = system: SNB-19 CNS
# MOLT-4 leukemia = system: MOLT-4 leukemia
# NCI-H226 lung = system: NCI-H226 lung
# SF-539 CNS = system: SF-539 CNS
# SR leukemia = system: SR leukemia
# U251 CNS = system: U251 CNS
# MDA-MB-435 = system: MDA-MB-435
# HCT-15 colon = system: HCT-15 colon
# HOP-92 NSCLC = system: HOP-92 NSCLC
# HCT-116 colon = system: HCT-116 colon
# COLO 205 colon = system: COLO 205 colon
# LOX IMVI melanoma = system: LOX IMVI melanoma
# M14 melanoma = system: M14 melanoma
# MDA-MB-231 breast = system: MDA-MB-231 breast
# T-47D breast = system: T-47D breast
# KM12 colon = system: KM12 colon
# OVCAR-5 ovarian = system: OVCAR-5 ovarian
# SK-OV-3 ovarian = system: SK-OV-3 ovarian
# RPMI-8226 leukemia = system: RPMI-8226 leukemia
# K-562 leukemia = system: K-562 leukemia
# SF-295 CNS = system: SF-295 CNS
# UO-31 renal = system: UO-31 renal
# A549 NSCLC = system: A549 NSCLC
# SW-620 colon = system: SW-620 colon
# DU-145 prostate = system: DU-145 prostate
# NCI/ADR-RES ovarian = system: NCI/ADR-RES ovarian
# ACHN renal = system: ACHN renal
# NCI-H23 lung = system: NCI-H23 lung
# MCF7 breast = system: MCF7 breast
# NCI-H522 lung = system: NCI-H522 lung
# A498 renal = system: A498 renal
compound,measurement,setting,value
CC(C)(C)OC(=O)NCCCCC(NC(=O)C(Cc1c[nH]c2ccccc12)NC(=O)OCC1c2ccccc2-c2ccccc21)C(=O)O (configuration not stated) (Fmoc-Trp-Lys(Boc)-OH; configuration not given here),TGI,OVCAR-8 ovarian,> 100 µM
same,TGI,MALME-3M melanoma,> 100 µM
same,TGI,TK-10 renal,> 100 µM
same,TGI,EKVX NSCLC,> 100 µM
same,TGI,MDA-N,> 100 µM
same,TGI,CCRF-CEM leukemia,61 µM
same,TGI,HS 578T breast,96.2 µM
same,TGI,OVCAR-4 ovarian,> 100 µM
same,TGI,SN12C renal,> 100 µM
same,TGI,NCI-H460 lung,> 100 µM
same,TGI,SNB-75 CNS,> 100 µM
same,TGI,SF-268 CNS,> 100 µM
same,TGI,UACC-257 melanoma,> 100 µM
same,TGI,SK-MEL-2 melanoma,54.9 µM
same,TGI,PC-3 prostate,> 100 µM
same,TGI,BT-549 breast,> 100 µM
same,TGI,CAKI-1 renal,31.5 µM
same,TGI,RXF 393 renal,> 100 µM
same,TGI,OVCAR-3 ovarian,40.4 µM
same,TGI,HOP-62 NSCLC,> 100 µM
same,TGI,UACC-62 melanoma,42.4 µM
same,TGI,HCC-2998 colon,> 100 µM
same,TGI,IGROV1 ovarian,> 100 µM
same,TGI,SK-MEL-5 melanoma,> 100 µM
same,TGI,HT29 colon,> 100 µM
same,TGI,HL-60(TB) leukemia,34 µM
same,TGI,786-0 renal,> 100 µM
same,TGI,SK-MEL-28 melanoma,> 100 µM
same,TGI,SNB-19 CNS,> 100 µM
same,TGI,MOLT-4 leukemia,48.2 µM
same,TGI,NCI-H226 lung,> 100 µM
same,TGI,SF-539 CNS,> 100 µM
same,TGI,SR leukemia,59.3 µM
same,TGI,U251 CNS,31.1 µM
same,TGI,MDA-MB-435,> 100 µM
same,TGI,HCT-15 colon,> 100 µM
same,TGI,HOP-92 NSCLC,67 µM
same,TGI,HCT-116 colon,> 100 µM
same,TGI,COLO 205 colon,> 100 µM
same,TGI,LOX IMVI melanoma,46.2 µM
same,TGI,M14 melanoma,> 100 µM
same,TGI,MDA-MB-231 breast,67.9 µM
same,TGI,T-47D breast,> 100 µM
same,TGI,KM12 colon,> 100 µM
same,TGI,OVCAR-5 ovarian,> 100 µM
same,TGI,SK-OV-3 ovarian,35.6 µM
same,TGI,RPMI-8226 leukemia,67 µM
same,TGI,K-562 leukemia,38.5 µM
same,TGI,SF-295 CNS,> 100 µM
same,TGI,UO-31 renal,> 100 µM
same,TGI,A549 NSCLC,> 100 µM
same,TGI,SW-620 colon,> 100 µM
same,TGI,DU-145 prostate,> 100 µM
same,TGI,NCI/ADR-RES ovarian,> 100 µM
same,TGI,ACHN renal,> 100 µM
same,TGI,NCI-H23 lung,> 100 µM
same,TGI,MCF7 breast,> 100 µM
O=C(CC(C(=O)c1cccs1)c1ccccc1)c1ccccc1O (configuration not stated),TGI,OVCAR-8 ovarian,> 100 µM
same,TGI,TK-10 renal,> 74.5 µM
same,TGI,EKVX NSCLC,> 100 µM
same,TGI,MDA-N,> 100 µM
same,TGI,CCRF-CEM leukemia,> 100 µM
same,TGI,HS 578T breast,> 22.9 µM
same,TGI,OVCAR-4 ovarian,> 64.2 µM
same,TGI,SN12C renal,> 100 µM
same,TGI,NCI-H460 lung,> 100 µM
same,TGI,SNB-75 CNS,> 55.7 µM
same,TGI,SF-268 CNS,> 35.1 µM
same,TGI,UACC-257 melanoma,> 100 µM
same,TGI,SK-MEL-2 melanoma,> 100 µM
same,TGI,PC-3 prostate,> 100 µM
same,TGI,BT-549 breast,> 100 µM
same,TGI,CAKI-1 renal,> 67.3 µM
same,TGI,RXF 393 renal,27.9 µM
same,TGI,OVCAR-3 ovarian,> 100 µM
same,TGI,HOP-62 NSCLC,> 48.1 µM
same,TGI,UACC-62 melanoma,> 44.6 µM
same,TGI,HCC-2998 colon,> 100 µM
same,TGI,IGROV1 ovarian,> 57.3 µM
same,TGI,SK-MEL-5 melanoma,> 100 µM
same,TGI,HT29 colon,> 100 µM
same,TGI,HL-60(TB) leukemia,> 44 µM
same,TGI,786-0 renal,> 38.4 µM
same,TGI,SK-MEL-28 melanoma,> 100 µM
same,TGI,SNB-19 CNS,> 100 µM
same,TGI,MOLT-4 leukemia,> 38.4 µM
same,TGI,NCI-H226 lung,> 100 µM
same,TGI,SF-539 CNS,> 100 µM
same,TGI,SR leukemia,> 52.5 µM
same,TGI,U251 CNS,> 30.2 µM
same,TGI,HCT-15 colon,> 100 µM
same,TGI,HOP-92 NSCLC,> 38.9 µM
same,TGI,HCT-116 colon,> 100 µM
same,TGI,COLO 205 colon,> 100 µM
same,TGI,LOX IMVI melanoma,> 47.4 µM
same,TGI,M14 melanoma,> 100 µM
same,TGI,MDA-MB-231 breast,> 30 µM
same,TGI,T-47D breast,> 40 µM
same,TGI,KM12 colon,> 100 µM
same,TGI,OVCAR-5 ovarian,> 100 µM
same,TGI,SK-OV-3 ovarian,> 100 µM
same,TGI,RPMI-8226 leukemia,> 100 µM
same,TGI,K-562 leukemia,46.6 µM
same,TGI,SF-295 CNS,> 27.9 µM
same,TGI,UO-31 renal,> 100 µM
same,TGI,A549 NSCLC,> 100 µM
same,TGI,NCI-H522 lung,10.4 µM
same,TGI,SW-620 colon,> 100 µM
same,TGI,DU-145 prostate,> 100 µM
same,TGI,NCI/ADR-RES ovarian,> 25.3 µM
same,TGI,ACHN renal,> 44.8 µM
same,TGI,NCI-H23 lung,> 100 µM
same,TGI,MCF7 breast,> 38.7 µM
C=C(C)COC(=O)COCC(=O)OCC(=C)C,TGI,OVCAR-8 ovarian,> 100 µM
same,TGI,MALME-3M melanoma,> 100 µM
same,TGI,TK-10 renal,> 100 µM
same,TGI,EKVX NSCLC,> 100 µM
same,TGI,MDA-N,> 100 µM
same,TGI,CCRF-CEM leukemia,> 100 µM
same,TGI,HS 578T breast,> 100 µM
same,TGI,OVCAR-4 ovarian,> 100 µM
same,TGI,SN12C renal,> 100 µM
same,TGI,NCI-H460 lung,> 100 µM
same,TGI,A498 renal,> 100 µM
same,TGI,SNB-75 CNS,> 100 µM
same,TGI,SF-268 CNS,> 100 µM
same,TGI,UACC-257 melanoma,> 100 µM
same,TGI,PC-3 prostate,> 100 µM
same,TGI,BT-549 breast,> 100 µM
same,TGI,CAKI-1 renal,> 100 µM
same,TGI,RXF 393 renal,> 100 µM
same,TGI,OVCAR-3 ovarian,> 100 µM
same,TGI,HOP-62 NSCLC,> 100 µM
same,TGI,UACC-62 melanoma,> 100 µM
same,TGI,HCC-2998 colon,> 100 µM
same,TGI,IGROV1 ovarian,> 100 µM
same,TGI,SK-MEL-5 melanoma,> 100 µM
same,TGI,HT29 colon,> 100 µM
same,TGI,786-0 renal,> 100 µM
same,TGI,SK-MEL-28 melanoma,> 100 µM
same,TGI,SNB-19 CNS,> 100 µM
same,TGI,MOLT-4 leukemia,> 100 µM
same,TGI,NCI-H226 lung,> 100 µM
same,TGI,SR leukemia,> 100 µM
same,TGI,U251 CNS,> 100 µM
same,TGI,MDA-MB-435,> 100 µM
same,TGI,HCT-15 colon,> 100 µM
same,TGI,HOP-92 NSCLC,> 100 µM
same,TGI,HCT-116 colon,> 100 µM
same,TGI,COLO 205 colon,> 100 µM
same,TGI,M14 melanoma,> 100 µM
same,TGI,MDA-MB-231 breast,> 100 µM
same,TGI,T-47D breast,> 100 µM
same,TGI,KM12 colon,> 100 µM
same,TGI,OVCAR-5 ovarian,> 100 µM
same,TGI,SK-OV-3 ovarian,> 100 µM
same,TGI,RPMI-8226 leukemia,> 100 µM
same,TGI,K-562 leukemia,> 100 µM
same,TGI,SF-295 CNS,> 100 µM
same,TGI,UO-31 renal,> 100 µM
same,TGI,A549 NSCLC,> 100 µM
same,TGI,SW-620 colon,> 100 µM
same,TGI,DU-145 prostate,> 100 µM
same,TGI,NCI/ADR-RES ovarian,> 100 µM
same,TGI,ACHN renal,> 100 µM
same,TGI,NCI-H23 lung,> 100 µM
same,TGI,MCF7 breast,> 100 µM
